Data as given in US9101671B2, “Methods and compositions related to clot binding compounds” (Sanford-Burnham Medical Research Institute, priority 2007, dated 2015).
Where no end group is shown, it is not given here. fluorescent dye = not defined here

Legend:
PyMT tumors = assay: Tumor homing of intravenously injected fluorescent CREKA peptide in MMTV-PyMT mice; assay type: in vivo; details: intravenous injection; minutes to hours after the injection; fluorescent dye at N-terminus
Procedure: (§1) (A). Balb/c nude mice bearing MDA-MB-435 human breast cancer xenograft tumors or transgenic MMTV PyMT mice with breast tumors were intravenously injected with 0.1 mg of fluorescein-CREKA. The animals were sacrificed by perfusion 24 hours post-injection and tissue sections were examined by fluorescent microscopy. Right panel, control organs of MDA-MB 435 tumor mice. Magnification 200×. (B). Whole animal imaging of MDA-MB-435 tumor mouse injected 6 hours earlier with 30 μg of Alexa Fluor 647-labeled CREKA. Maestro imaging system (Cambridge Research Inc., Woburn, Mass.) was used to acquire and process the image. The arrow points to the tumor and the arrowhead to the urinary bladder.
A tumor-homing peptide was used to construct targeted nanoparticles. […] The most frequently represented peptide sequence in the selected phage preparation was CREKA (cys-arg-glu-lys-ala; SEQ ID NO:1). The CREKA peptide was synthesized with a fluorescent dye attached to the N-terminus and the in vivo distribution of the peptide was studied in tumor-bearing mice. […] The peptide formed a distinct meshwork in the tumor stroma (FIG. 5), and it also highlighted the blood vessels in the tumors. […]

[1] = test system: MDA-MB-435 human breast cancer xenografts; assay: Tumor homing of intravenously injected fluorescent CREKA peptide in MDA-MB-435 xenograft mice; assay type: in vivo
Procedure: as §1
A tumor-homing peptide was used to construct targeted nanoparticles. […] The most frequently represented peptide sequence in the selected phage preparation was CREKA (cys-arg-glu-lys-ala; SEQ ID NO:1). The CREKA peptide was synthesized with a fluorescent dye attached to the N-terminus and the in vivo distribution of the peptide was studied in tumor-bearing mice. […] The peptide formed a distinct meshwork in the tumor stroma (FIG. 5), and it also highlighted the blood vessels in the tumors.
In vivo screening of a peptide library with the general structure of CX7C (SEQ ID NO: 4), where C is cysteine and X is any amino acid, was carried out as described (Oh 2004) using 65- to 75-day-old transgenic MMTV PyMT mice (Hutchinson 2000). These mice express the polyoma virus middle T antigen (MT) under the transcriptional control of the mouse mammary tumor virus (MMTV), leading to the induction of multi-focal mammary tumors in 100% of carriers. MDA-MB-435 tumors in nude mice and peptide synthesis have been described (Laakkonen 2002; Laakkonen 2004). B16F1 murine melanoma tumors were grown in fibrinogen null mice (Suh 1995) and their normal littermates and used when they reached 0.5-1 cm in size (Pilch 2006).

B16F1 melanomas = assay: CREKA peptide homing to B16F1 melanomas in fibrinogen null mice and normal littermates; assay type: in vivo; details: intravenous injection
Procedure: Fluorescein-conjugated CREKA peptide (200 μg per mouse) was injected into mice bearing syngeneic B16 melanoma tumors. Representative microscopic fields are shown to illustrate homing of fluorescein-CREKA to fibrin-like structures in tumors in wild type mice (A, arrow) and lack of homing in fibrinogen null mice (B). […] (D) Dextran-coated iron oxide nanoparticles conjugated with fluorescein-CREKA bind to clotted plasma proteins, and the binding is inhibited by free CREKA peptide. […] Magnification: A-B, 200×; D, 600×.
Tumors contain a meshwork of clotted plasma proteins in the tumor stroma and the walls of vessels, but no such meshwork is detectable in normal tissues (Dvorak 1985; Abe 1999; Pilch 2006). The mesh-like pattern produced by the CREKA peptide in tumors prompted the study of whether clotted plasma proteins can be the target of this peptide. The peptide was tested in fibrinogen knockout mice, which lack the fibrin meshwork in their tumors. […] Its structure makes it an attractive peptide to use in nanoparticle targeting because, unlike other clot-binding peptides, which are cyclic 10 amino-acid peptides (Pilch 2006), CREKA is linear and contains only 5 amino acids. Moreover, the sulfhydryl group of the single cysteine residue is not required to provide binding activity and can be used to couple the peptide to other moieties. […]

mouse plasma clots = assay: Nanoparticle binding to mouse plasma clots in vitro
Procedure: (§2) Phage binding to clotted plasma proteins was determined as described (Pilch 2006). CREKA-SPIO and control SPIO were added to freshly formed plasma clots in the presence or absence of free CREKA peptide. After 10 min incubation, the clots were washed 4 times in PBS, transferred to a new tube and digested in 100 μl concentrated nitric acid. The digested material was diluted in 2 ml distilled water and the iron concentration was determined using inductively coupled plasma-optical emission spectroscopy (ICP-OES, PerkinElmer, Norwalk, Conn.).

human plasma clots = assay: Nanoparticle binding to human plasma clots in vitro
Procedure: as §2

effect of free peptide on CREKA-SPIO binding to plasma clots (mouse plasma clots): inhibited
effect of free peptide on CREKA-SPIO binding to plasma clots (human plasma clots): inhibited
Substance: cys-arg-glu-lys-ala ({fluorescent dye}-CREKA; reading uncertain; also: dye not identified, printed as cys-arg-glu-lys-ala) [CREKA peptide, studied in vivo with a fluorescent dye attached to the N-terminus]
peptide detection in tumors (PyMT tumors): readily detectable
peptide detection in tumors ([1]; intravenous injection, minutes to hours after the injection, fluorescent dye at N-terminus): readily detectable
peptide detection in normal tissues ([1]; intravenous injection, tumor-bearing mice): essentially undetectable
whole body imaging, peptide accumulation ([1]; peptide labeled with Alexa 647, 6 hours after injection of 30 μg): peptide accumulation in the breast cancer xenografts, and in the bladder
peptide accumulation in tumors (B16F1 melanomas; fibrinogen null mice): failed to accumulate
peptide accumulation in tumors (B16F1 melanomas; normal littermates of the null mice): formed a brightly fluorescent meshwork
